In brackets after ≈: the same amount, converted by molar mass.
How the values were obtained:
[1] = tested on: E. coli ATCC 25922; assay: Broth microdilution MIC / MBC assay, E. coli; format: cell-based; settings: Escherichia coli; for MIC: ATCC25922, 24 h, read-out: Antibacterial activity MIC; for MBC: ATCC25922, read-out: Antibacterial activity MBC
[2] = tested on: S. aureus ATCC 25923; assay: Broth microdilution MIC / MBC assay, S. aureus; format: cell-based; settings: Staphylococcus aureus; for MIC: ATCC25923, 24 h, read-out: Antibacterial activity MIC; for MBC: ATCC25923, read-out: Antibacterial activity MBC
[3] = tested on: S. aureus; settings: cited from earlier work

Molecule	MIC [1] [µM]	MBC [1] [µM]	MIC [2] [µM]	MBC [2] [µM]	minimum inhibitory concentration (MIC) [3] [µM]
O=C(O)/C=C/c1ccc(O)c(O)c1 [CA, caffeic acid]	> 1110	> 1110	> 1110	> 1110	–
CCn1cc(C(=O)O)c(=O)c2cc3c(cc21)OCO3 [OA, oxolinic acid]	3 (≈ 0.784 µg/mL)	6 (≈ 1.57 µg/mL)	383 (≈ 100 µg/mL)	> 766	–
Fc-WRWRW	–	–	–	–	7
WRWRWR	–	–	–	–	16

Reference: publication PMC9055962 (RSC Advances, 2020)
